Measured values: US20260297081A1, “COMPOUNDS AND METHODS OF TREATING CANCERS” (Cullgen Inc., priority 2023, published 2026)

What was measured:
Format in all cases: cell-based
Calu-1 cells = experiment: Anti-proliferation (viability) of NSCLC Calu-1 cells, 3 days (Table 7, FIG. 2B); settings: Homo sapiens, 72 h; Calu-1 cells, 3 days, 10-point serial dilution; read-out: GI IC50 in Calu-1
Procedure, shortened: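 Cells were exposed to heterobifunctional compounds across a 10-point serial dilution, for 3 days with Calu-1 and 6 days with T47D. A negative control was included that keeps the DDB1 ligand and linker but carries a modified warhead that impairs CDK4 binding.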

MCF7 cells = experiment: Anti-proliferation (viability) of MCF7 cells (Table 7, FIG. 2B); settings: Homo sapiens, MCF7, MCF7 cells, 3-6 days, 10-point serial dilution; read-out: GI IC50 in MCF-7
CDK4 = CDK4 (Homo sapiens, UniProt P11802+Q16531); experiment: HiBiT detection of HiBiT-tagged CDK4 protein level in MCF7 cells, 16 hours (Table 8); design: expressed in transfected cells; host or cells: MCF7; settings: MCF7 cells stably expressing HiBiT tagged target proteins; for activity at 0.01 µM: 10 nM, read-out: % CDK4 Relative Level (10 nM); for activity at 0.1 µM: 100 nM, read-out: % CDK4 Relative Level (100 nM)
CDK4, sequence (P11802 whole entry): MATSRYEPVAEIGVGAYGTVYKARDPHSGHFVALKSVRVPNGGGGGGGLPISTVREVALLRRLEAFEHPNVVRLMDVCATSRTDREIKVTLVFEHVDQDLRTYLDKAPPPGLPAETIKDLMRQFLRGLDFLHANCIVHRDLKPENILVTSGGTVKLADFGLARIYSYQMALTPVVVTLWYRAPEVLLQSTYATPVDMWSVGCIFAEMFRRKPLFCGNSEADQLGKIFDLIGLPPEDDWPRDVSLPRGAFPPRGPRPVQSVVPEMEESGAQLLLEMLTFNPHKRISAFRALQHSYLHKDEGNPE
CDK4, sequence (P24385 whole entry partner): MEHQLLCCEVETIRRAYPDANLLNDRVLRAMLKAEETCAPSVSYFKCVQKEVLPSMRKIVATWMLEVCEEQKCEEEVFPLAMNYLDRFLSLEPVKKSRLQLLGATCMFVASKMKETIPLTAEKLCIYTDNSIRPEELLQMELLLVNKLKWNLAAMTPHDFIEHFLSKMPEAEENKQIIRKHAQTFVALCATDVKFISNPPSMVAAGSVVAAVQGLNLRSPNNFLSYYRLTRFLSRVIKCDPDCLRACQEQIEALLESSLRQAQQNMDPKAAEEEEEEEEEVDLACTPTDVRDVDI
CDK4, sequence (Q16531 2-1140 limits assumed): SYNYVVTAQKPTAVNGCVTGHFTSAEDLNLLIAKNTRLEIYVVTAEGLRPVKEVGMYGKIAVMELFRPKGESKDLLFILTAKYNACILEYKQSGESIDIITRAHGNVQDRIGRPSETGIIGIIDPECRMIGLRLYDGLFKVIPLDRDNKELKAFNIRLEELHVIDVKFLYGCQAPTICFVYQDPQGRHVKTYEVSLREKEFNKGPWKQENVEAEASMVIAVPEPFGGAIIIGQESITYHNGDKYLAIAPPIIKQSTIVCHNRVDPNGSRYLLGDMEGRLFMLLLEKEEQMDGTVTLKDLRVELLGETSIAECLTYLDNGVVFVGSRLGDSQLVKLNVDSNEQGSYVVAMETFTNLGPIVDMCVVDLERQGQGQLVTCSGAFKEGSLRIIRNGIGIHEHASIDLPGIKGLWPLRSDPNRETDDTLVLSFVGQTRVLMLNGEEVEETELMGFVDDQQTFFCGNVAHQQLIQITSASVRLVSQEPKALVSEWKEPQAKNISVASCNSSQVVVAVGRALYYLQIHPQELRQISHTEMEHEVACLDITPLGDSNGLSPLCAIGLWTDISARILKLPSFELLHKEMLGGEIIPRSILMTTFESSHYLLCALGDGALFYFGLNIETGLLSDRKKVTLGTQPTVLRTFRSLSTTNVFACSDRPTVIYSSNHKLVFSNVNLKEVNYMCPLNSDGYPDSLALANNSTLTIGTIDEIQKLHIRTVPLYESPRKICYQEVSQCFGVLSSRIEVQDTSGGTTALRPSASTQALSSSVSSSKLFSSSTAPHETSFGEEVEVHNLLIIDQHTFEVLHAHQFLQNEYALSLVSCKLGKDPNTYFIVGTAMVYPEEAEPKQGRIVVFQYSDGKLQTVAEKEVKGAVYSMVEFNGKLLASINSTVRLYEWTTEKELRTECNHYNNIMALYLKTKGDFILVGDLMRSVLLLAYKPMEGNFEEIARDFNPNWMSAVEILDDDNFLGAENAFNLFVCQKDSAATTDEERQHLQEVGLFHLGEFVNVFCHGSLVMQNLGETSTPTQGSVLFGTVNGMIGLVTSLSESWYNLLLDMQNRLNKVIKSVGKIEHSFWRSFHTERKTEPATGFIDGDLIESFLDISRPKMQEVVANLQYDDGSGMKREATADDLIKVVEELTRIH
Procedure: HiBiT detection system quantitatively measures total amounts of HiBiT-tagged proteins using a luminescent based method. MCF7 cells stably expressing HiBiT tagged target proteins were treated with heterobifunctional compounds at indicated concentrations for 16 hours, then lysed with Nano-Glo HiBiT Lytic detection reagents.

IC50 (Calu-1 cells) [nM] | IC50 (MCF7 cells) [nM] | activity at 0.01 µM (CDK4) [%] | activity at 0.1 µM (CDK4) [%] | SMILES
≤ 10 | < 50 | > 85 | > 85 | CC(=O)c1c(C)c2cnc(Nc3ccc(N4CCN(C5CCN(C(=O)CC67CC(Nc8nc(NC(C)C)ccc8C(=O)Nc8ccc(N(C)C)nn8)(C6)C7)C5)CC4)cn3)nc2n(C2CCCC2)c1=O (stereo not shown) [CPD-537, 2-((3-(2-(3-(4-(6-((6-acetyl-8-cyclopentyl-5-methyl-7-oxo-7,8-dihydropyrido[2,3-d]pyrimidin-2-yl)amino)pyridin-3-yl)piperazin-1-yl)pyrrolidin-1-yl)-2-oxoethyl)bicyclo[1.1.1]pentan-1-yl)amino)-N-(6-(dimethylamino)pyridazin-3-yl)-6-(isopropylamino)nicotinamide]
≤ 10 | < 50 | > 85 | > 85 | CC(=O)c1c(C)c2cnc(Nc3ccc(N4CCN(CC(=O)N(C)CC56CC(Nc7nc(NC(C)C)ccc7C(=O)Nc7ccc(N(C)C)nn7)(C5)C6)CC4)cn3)nc2n(C2CCCC2)c1=O [CPD-525, 2-((3-((2-(4-(6-((6-acetyl-8-cyclopentyl-5-methyl-7-oxo-7,8-dihydropyrido[2,3-d]pyrimidin-2-yl)amino)pyridin-3-yl)piperazin-1-yl)-N-methylacetamido)methyl)bicyclo[1.1.1]pentan-1-yl)amino)-N-(6-(dimethylamino)pyridazin-3-yl)-6-(isopropylamino)nicotinamide]
≤ 10 | < 50 | > 85 | > 85 | CC(=O)c1c(C)c2cnc(Nc3ccc(N4CCN(CCNC(=O)C56CC(Nc7nc(NC(C)C)ccc7C(=O)Nc7ccc(N(C)C)nn7)(C5)C6)CC4)cn3)nc2n(C2CCCC2)c1=O [CPD-506, 2-((3-((2-(4-(6-((6-acetyl-8-cyclopentyl-5-methyl-7-oxo-7,8-dihydropyrido[2,3-d]pyrimidin-2-yl)amino)pyridin-3-yl)piperazin-1-yl)ethyl)carbamoyl)bicyclo[1.1.1]pentan-1-yl)amino)-N-(6-(dimethylamino)pyridazin-3-yl)-6-(isopropylamino)nicotinamide]
≤ 10 | < 50 | 55 to 85 | 55 to 85 | [2H]C([2H])([2H])Nc1ccc(C(=O)Nc2ccc(N(C)C)nn2)c(NC2CC3(C2)CN(C(=O)C(C)N2CCN(Cc4ccc(Nc5ncc6c(C)c(C(C)=O)c(=O)n(C7CCCC7)c6n5)nc4)CC2)C3)n1 (stereo not shown) [CPD-456, 2-((2-(2-(4-((6-((6-acetyl-8-cyclopentyl-5-methyl-7-oxo-7,8-dihydropyrido[2,3-d]pyrimidin-2-yl)amino)pyridin-3-yl)methyl)piperazin-1-yl)propanoyl)-2-azaspiro[3.3]heptan-6-yl)amino)-N-(6-(dimethylamino)pyridazin-3-yl)-6-((methyl-d3)amino)nicotinamide]
≤ 10 | < 50 | > 85 | 55 to 85 | COC1(C(=O)N2CCC(N3CCN(c4ccc(Nc5ncc6c(C)c(C(C)=O)c(=O)n(C7CCCC7)c6n5)nc4)CC3)C2)CCC(Nc2nc(NC(C)C)ccc2C(=O)Nc2ccc(N(C)C)nn2)CC1 (stereo not shown) [CPD-536, 2-((4-(3-(4-(6-((6-acetyl-8-cyclopentyl-5-methyl-7-oxo-7,8-dihydropyrido[2,3-d]pyrimidin-2-yl)amino)pyridin-3-yl)piperazin-1-yl)pyrrolidine-1-carbonyl)-4-methoxycyclohexyl)amino)-N-(6-(dimethylamino)pyridazin-3-yl)-6-(isopropylamino)nicotinamide]
≤ 10 | < 50 | 55 to 85 | 55 to 85 | CC(=O)c1c(C)c2cnc(Nc3ccc(CN4CCN(CC(=O)NC5CC6(C5)CC(Nc5nc(NC(C)C)ccc5C(=O)Nc5cn(C)c(C7CC7)n5)C6)CC4)cn3)nc2n(C2CCCC2)c1=O (stereo not shown) [CPD-589, 2-((6-(2-(4-((6-((6-acetyl-8-cyclopentyl-5-methyl-7-oxo-7,8-dihydropyrido[2,3-d]pyrimidin-2-yl)amino)pyridin-3-yl)methyl)piperazin-1-yl)acetamido)spiro[3.3]heptan-2-yl)amino)-N-(2-cyclopropyl-1-methyl-1H-imidazol-4-yl)-6-(isopropylamino)nicotinamide]
≤ 10 | < 50 | > 85 | > 85 | CC(=O)c1c(C)c2cnc(Nc3ccc(N4CCN(C5CCN(C(=O)[C@H]6CC[C@H](Nc7nc(NC(C)C)ccc7C(=O)Nc7cn(C)c(C8CC8)n7)CC6)C5)CC4)cn3)nc2n(C2CCCC2)c1=O (stereo partly shown) [CPD-481, 2-((4-(3-(4-(6-((6-acetyl-8-cyclopentyl-5-methyl-7-oxo-7,8-dihydropyrido[2,3-d]pyrimidin-2-yl)amino)pyridin-3-yl)piperazin-1-yl)pyrrolidine-1-carbonyl)cyclohexyl)amino)-N-(2-cyclopropyl-1-methyl-1H-imidazol-4-yl)-6-(isopropylamino)nicotinamide]
≤ 10 | < 50 | > 85 | > 85 | CC(=O)c1c(C)c2cnc(Nc3ccc(CN4CCN(C(C)C(=O)N5CCC6(CCC(Nc7nc(NC(C)C)ccc7C(=O)Nc7ccc(N(C)C)nn7)C6)C5)CC4)cn3)nc2n(C2CCCC2)c1=O (stereo not shown) [CPD-550, 2-((2-(2-(4-((6-((6-acetyl-8-cyclopentyl-5-methyl-7-oxo-7,8-dihydropyrido[2,3-d]pyrimidin-2-yl)amino)pyridin-3-yl)methyl)piperazin-1-yl)propanoyl)-2-azaspiro[4.4]nonan-7-yl)amino)-N-(6-(dimethylamino)pyridazin-3-yl)-6-(isopropylamino)nicotinamide]
≤ 10 | < 50 | 55 to 85 | 55 to 85 | [2H]C([2H])([2H])Nc1ccc(C(=O)Nc2cccc(OC)n2)c(NC2CC3(C2)CN(C(=O)CC(N2CCN(c4ccc(Nc5ncc6c(C)c(C(C)=O)c(=O)n(C7CCCC7)c6n5)nc4)CC2)C(F)(F)F)C3)n1 (stereo not shown) [CPD-531, 2-((2-(3-(4-(6-((6-acetyl-8-cyclopentyl-5-methyl-7-oxo-7,8-dihydropyrido[2,3-d]pyrimidin-2-yl)amino)pyridin-3-yl)piperazin-1-yl)-4,4,4-trifluorobutanoyl)-2-azaspiro[3.3]heptan-6-yl)amino)-N-(6-methoxypyridin-2-yl)-6-((methyl-d3)amino)nicotinamide]
≤ 10 | < 50 | > 85 | 55 to 85 | CC(=O)c1c(C)c2cnc(Nc3ccc(N4CCN(C5CCN(C(=O)[C@H]6CC[C@H](Nc7nc(C(C)C)ccc7C(=O)Nc7ccc(N(C)C)nn7)CC6)C5)CC4)cn3)nc2n(C2CCCC2)c1=O (stereo partly drawn) [CPD-499, 2-((trans-4-(3-(4-(6-((6-acetyl-8-cyclopentyl-5-methyl-7-oxo-7,8-dihydropyrido[2,3-d]pyrimidin-2-yl)amino)pyridin-3-yl)piperazin-1-yl)pyrrolidine-1-carbonyl)cyclohexyl)amino)-N-(6-(dimethylamino)pyridazin-3-yl)-6-isopropylnicotinamide]
